From patent US10272088B2, “FAS inhibitors and methods associated therewith” (Wake Forest University Health Sciences, priority 2014, dated 2019)
Entries after “also recorded” stand apart in the source; their conditions may differ.

Tests used:
[1] = biological target: FASN (Homo sapiens, UniProt P49327); assay: 14C-acetate incorporation study (FASN inhibition); details: PC3 cells
Procedure: Next, 1 μCi of ^14C-acetate will be added to the cells and be incubated for an additional 2 h. After washing cells with PBS/EDTA, the fatty acids will be extracted with chloroform/methanol (1:1) and quantified by scintillation counting using standard protocols.

[2] = tested on: cells; assay: Cytotoxicity after pre-incubation in PBS (entrapment/hydrolytic stability); assay type: cell-based; details: pre-incubated in PBS prior to incubating with cells
[3] = cited from earlier work
[4] = tested on: PC3 prostate, RKO colorectal, and MDA-MB-231 breast cancer cells; assay: In vitro cytotoxicity, WST-8 assay; details: Nano-Orl (PBA ligand) dosed equivalent to 25 m Orlistat, 24 h + 24 h
Procedure: Media alone or containing experimental or control agents was refreshed after 24 h and allowed to incubate for 24 additional hours. Cytotoxicity was then evaluated using the WST-8 assay (Dojindo, Rockville, Md.).

[5] = tested on: PC3 cells; assay: Seahorse Mito Stress test, oxygen consumption rate; details: Orlistat 50 μM, 12 hours
Procedure: PC3 cells were seeded into 24-well XF analysis microplates. The cells were the treated with vehicle (•) or Orlistat (50 μM. ? ) for 12 hours before analysis, according to Seahorse protocols. Oxygen consumption rate (OCR), a measure of mitochondrial capacity, was determined using a Seahorse Mito Stress test on a Seahorse XF24 extracellular flux analyzer.

[6] = Solubility/aggregation of ICG in PBS

Sequence of FASN (P49327 whole entry): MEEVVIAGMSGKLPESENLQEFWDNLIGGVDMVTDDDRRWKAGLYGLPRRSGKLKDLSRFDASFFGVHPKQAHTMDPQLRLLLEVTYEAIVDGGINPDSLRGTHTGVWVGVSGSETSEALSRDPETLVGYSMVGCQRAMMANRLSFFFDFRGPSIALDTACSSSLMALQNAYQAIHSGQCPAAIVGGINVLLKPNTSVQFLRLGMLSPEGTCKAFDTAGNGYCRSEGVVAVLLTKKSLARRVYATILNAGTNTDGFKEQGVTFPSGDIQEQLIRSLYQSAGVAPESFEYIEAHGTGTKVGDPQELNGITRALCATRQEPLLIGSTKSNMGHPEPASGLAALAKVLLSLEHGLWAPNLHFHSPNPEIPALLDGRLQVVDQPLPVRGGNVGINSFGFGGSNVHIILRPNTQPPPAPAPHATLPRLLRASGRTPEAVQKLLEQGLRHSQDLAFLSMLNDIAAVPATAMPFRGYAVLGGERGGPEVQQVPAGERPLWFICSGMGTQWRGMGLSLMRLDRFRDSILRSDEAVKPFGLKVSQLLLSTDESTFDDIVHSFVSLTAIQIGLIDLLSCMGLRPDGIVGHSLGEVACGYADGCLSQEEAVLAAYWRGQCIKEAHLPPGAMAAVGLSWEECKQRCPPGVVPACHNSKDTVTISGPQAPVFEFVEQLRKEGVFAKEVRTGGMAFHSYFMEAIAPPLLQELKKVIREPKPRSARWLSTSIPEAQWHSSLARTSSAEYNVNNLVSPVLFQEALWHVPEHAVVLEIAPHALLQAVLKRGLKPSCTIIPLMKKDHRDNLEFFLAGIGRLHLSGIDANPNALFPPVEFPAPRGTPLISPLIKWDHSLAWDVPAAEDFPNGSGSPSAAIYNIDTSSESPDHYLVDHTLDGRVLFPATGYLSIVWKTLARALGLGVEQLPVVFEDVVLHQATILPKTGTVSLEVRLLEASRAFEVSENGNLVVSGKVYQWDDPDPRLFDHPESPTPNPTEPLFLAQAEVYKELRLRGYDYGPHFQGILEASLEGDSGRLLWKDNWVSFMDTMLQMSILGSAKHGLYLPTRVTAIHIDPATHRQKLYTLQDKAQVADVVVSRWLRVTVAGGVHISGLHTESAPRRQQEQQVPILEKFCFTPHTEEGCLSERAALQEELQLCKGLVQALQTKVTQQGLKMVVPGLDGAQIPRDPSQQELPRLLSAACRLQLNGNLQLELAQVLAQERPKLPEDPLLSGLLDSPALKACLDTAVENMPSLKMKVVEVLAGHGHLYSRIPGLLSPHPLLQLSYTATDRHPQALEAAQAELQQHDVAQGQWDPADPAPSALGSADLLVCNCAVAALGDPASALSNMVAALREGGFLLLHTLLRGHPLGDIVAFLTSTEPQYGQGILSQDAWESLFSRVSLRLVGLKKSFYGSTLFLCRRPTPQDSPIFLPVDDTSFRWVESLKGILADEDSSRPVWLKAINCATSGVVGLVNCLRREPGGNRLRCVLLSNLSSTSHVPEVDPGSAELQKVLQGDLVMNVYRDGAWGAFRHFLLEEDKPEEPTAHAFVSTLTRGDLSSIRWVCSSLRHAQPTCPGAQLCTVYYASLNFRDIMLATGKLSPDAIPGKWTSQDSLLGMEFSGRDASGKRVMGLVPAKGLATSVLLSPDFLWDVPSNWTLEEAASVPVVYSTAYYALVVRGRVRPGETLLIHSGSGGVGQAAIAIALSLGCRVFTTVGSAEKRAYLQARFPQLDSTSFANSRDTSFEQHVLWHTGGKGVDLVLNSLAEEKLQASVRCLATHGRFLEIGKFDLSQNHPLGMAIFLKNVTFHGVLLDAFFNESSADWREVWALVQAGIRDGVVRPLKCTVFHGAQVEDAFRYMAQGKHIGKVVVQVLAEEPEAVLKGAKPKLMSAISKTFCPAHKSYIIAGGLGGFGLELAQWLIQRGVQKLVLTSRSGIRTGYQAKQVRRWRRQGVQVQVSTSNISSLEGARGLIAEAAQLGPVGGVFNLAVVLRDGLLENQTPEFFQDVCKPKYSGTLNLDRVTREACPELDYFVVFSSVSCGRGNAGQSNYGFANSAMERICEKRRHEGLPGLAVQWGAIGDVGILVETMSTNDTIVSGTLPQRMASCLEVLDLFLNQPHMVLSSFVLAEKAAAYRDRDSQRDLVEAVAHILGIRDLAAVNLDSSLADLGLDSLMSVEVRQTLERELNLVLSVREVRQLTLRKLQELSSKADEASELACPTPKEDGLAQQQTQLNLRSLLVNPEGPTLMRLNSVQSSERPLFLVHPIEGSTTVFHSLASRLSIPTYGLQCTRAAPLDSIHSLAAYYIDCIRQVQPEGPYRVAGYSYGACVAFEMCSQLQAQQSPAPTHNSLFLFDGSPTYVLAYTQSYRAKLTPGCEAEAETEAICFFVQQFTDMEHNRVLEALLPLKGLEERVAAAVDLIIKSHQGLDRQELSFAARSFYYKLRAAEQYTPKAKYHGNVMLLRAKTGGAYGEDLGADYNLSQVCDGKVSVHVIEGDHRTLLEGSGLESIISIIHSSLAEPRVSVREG

SMILES: CCCCCCCCCCCCCCOc1ccc(C(=O)O)o1 [TOFA]
- 14C-acetate incorporation into lipids (FASN inhibition) [1]: inhibited FASN mediated incorporation of acetate in lipids

SMILES: CCCCCCCCCCC[C@@H](C[C@@H]1OC(=O)[C@H]1CCCCCC)OC(=O)[C@H](CC(C)C)NC=O [Orlistat]
- cytotoxicity after pre-incubation in PBS [2]: rendered ineffective; also recorded: dramatically reduces its efficacy
- tumor growth in vivo ([3]; compared to a sham control): inhibits tumor growth in vivo
- bioavailability ([3]; in vivo): poor bioavailability
- viability relative to the NP vehicle media control [4]: consistent with free Orlistat
- mitochondrial capacity (oxygen consumption rate) [5]: decreases mitochondrial capacity; also recorded: negatively impacts mitochondrial capacity

SMILES: CC1(C)C(/C=C/C=C/C=C/C=C2\N(CCCCS(=O)(=O)O)c3ccc4ccccc4c3C2(C)C)=[N+](CCCCS(=O)(=O)[O-])c2ccc3ccccc3c21 [ICG, indocyanine green]
- solubility in PBS [6]: not soluble in PBS; also recorded: rapidly aggregates in PBS
